The values that follow come from patent US20220142967A1, “Methods and Compositions for the Treatment of Multiple Sclerosis” (SYMBIONYX PHARMACEUTICALS INC, priority 2018, published 2022).

One series has as its system MS. The following applies: MS patients, oral therapy; cited from earlier work.
A further series has as its system human fetal astrocytes. As to the kind of experiment: A1 v A2 marker activation, RNA-seq of H2O2-stimulated astrocytes. In kind it is cell-based. The following applies: 2.5 μM, 24 hrs, H2O2 (50 μM) stimulated. The protocol: The treated cells were stimulated with H2O2 (50 μM) for 20 min and the RNA extracted 1 day later and sequenced using the Illumina HiSeq 2000 with an average of 39.3 million reads per sample. Reads were mapped to the GHch38/hg38 genome. 13,968 protein-coding genes had detectable expression on average among the 6 samples. Differentially expressed genes (DEGs) were identified using negative binomial models with FDR threshold of <0.10 and fold change (FC) criteria (FC>1.30 or FC<0.77). Gene set enrichment testing was performed using public database annotations. Motif enrichment with respect to DEG up-stream regions was characterized using semiparametric generalized additive logistics models. The overlap between the identified DEGs and MS-associated genes, i.e., genes from MS patients and genes linked to inflammatory (A1) and ischemic (A2) astrogliosis.

The test system of a further series is cultured astrocytes. As to the kind of experiment: RNA-seq of cultured astrocytes compared with MS patient white matter astrocytes (GSE83670). In kind it is cell-based, human. The following applies: cultured astrocytes vs. LCM-dissected MS patient astrocytes. The protocol: Previously, Waller et al. 2016 (J Neuroimmunol 299:139-146) used laser capture microdissection (LCM) to isolate astrocytes from normal appearing white matter in MS patients and CTL subjects (GEO dataset GSE83670; PMID: 27125112).
cDNA sequencing was performed by the University of Michigan sequencing core facility (50 cycle single end Illumina HiSeq 2000). The FASTX-Toolkit was used to filter reads by removing low quality sequences and initial quality assessments were performed using FastQC. Quality-filtered reads were mapped to the human genome (hg38/GRCh38, UCSC) using tophat2 with default settings, except multi-mapping of reads to multiple genome locations was disallowed (settings: -g 1 —no-coverage-search). The hg38/GRCh38 genome is the most recent release available from UCSC. HTSeq was used to tabulate the number of reads mapping to each genome feature and Cufflinks was used to calculate FPKM estimates and associated confidence intervals. RSeQC was used to assess quality of mapping and calculate the percentage of mapped reads. The negative binomial model (edgeR) was used to evaluate differential expression, with read counts normalized using the weighted trimmed mean of M-values method, and dispersions estimated using the Cox-Reid (CR)-adjusted likelihood approach. Differential expression analyses were performed using genes with detectable expression in at least 1 of 4 samples involved in a given comparison. A gene was considered to have detectable expression in a sample if the count per million mapped reads (cpm) estimate was greater than 0.20 and if the lower bound of the FPKM 95% confidence interval was greater than zero.
FIG. 3 presents in scatterplot and histogram format the results of the study on the astrocytes. Scatterplots (A) and (D) compare fold change (FC) estimates in DMF-treated (A) and IDMF-treated (D) astrocytes to LCM-dissected astrocytes in MS patients and healthy controls (CTLs). Each point represents a protein-coding gene and the light colored ellipses outline the 90% of genes closest to the bivariate mean based upon the Mahalanobis distance. The Spearman rank correlation coefficient estimate is shown (upper-left). The proportion of genes within each quadrant is indicated in the upper margin (P<0.05, Fisher's exact test), wherein the quadrants are defined by a vertical and horizontal line through the “1” in each axis with the proportion corresponding, left to right to the upper left, the upper right, the lower right and lower left quadrants, respectively. Gene set overlap is presented in (B), (C), (E) and (F) wherein genes within each set were altered with a P<0.05 threshold. P-values from the test of overlap significance are shown (bottom margin, Fisher's exact test). […]

The target in series [1] is T1, carboxylesterase 2 (CES2) (Homo sapiens, UniProt O00748).
T1 sequence (O00748 27-559): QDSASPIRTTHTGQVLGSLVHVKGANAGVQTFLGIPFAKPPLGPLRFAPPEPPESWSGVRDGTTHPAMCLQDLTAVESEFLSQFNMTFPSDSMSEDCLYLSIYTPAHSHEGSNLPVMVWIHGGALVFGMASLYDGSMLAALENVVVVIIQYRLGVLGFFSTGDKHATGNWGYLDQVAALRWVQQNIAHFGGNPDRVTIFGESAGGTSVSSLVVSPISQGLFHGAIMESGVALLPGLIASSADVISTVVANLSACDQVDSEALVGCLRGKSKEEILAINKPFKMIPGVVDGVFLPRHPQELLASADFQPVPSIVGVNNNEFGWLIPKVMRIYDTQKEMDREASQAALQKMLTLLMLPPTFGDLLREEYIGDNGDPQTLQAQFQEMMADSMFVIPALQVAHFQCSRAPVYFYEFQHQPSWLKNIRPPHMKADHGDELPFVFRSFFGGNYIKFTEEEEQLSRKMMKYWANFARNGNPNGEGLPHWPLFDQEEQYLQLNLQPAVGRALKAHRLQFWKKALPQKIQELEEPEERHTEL
Nature of the series: Carboxylesterase hydrolysis IDMF v DMF. In kind it is in vitro ADME. The following applies: for remaining parent compound: 1 mg/ml CES2, 37° C., pH 7.4. The procedure: IDMF and DMF were subjected to carboxylesterase hydrolysis. […] 1 mg/ml carboxylesterase 2 (CES2) was added to each solution and the solutions incubated at 37° C. for the time periods set forth in Table 5. […] Isosorbide was quantified using CAD. Mobile phase used for the study: 0.1% Formic acid in water; B: Methanol. Column: Luna C18 4.6 mm×100 mm, 5 u (Phenomenex). Flow rate: 1.0 ml/min.

The test system of series [2] is patients with relapsing remitting MS (RRMS). The following applies: cited from earlier work.
Series [3] has as its system patients with Relapsing-Remitting Multiple Sclerosis. The following applies: cited from earlier work.
The conditions of series [4]: in vivo; cited from earlier work.
Series [5] concerns human fetal astrocytes derived from cerebral cortex. As to the kind of experiment: Transcriptome analysis of astrocyte cultures treated with MMF, DRF, IDMF. In kind it is cell-based. The following applies: 2.5 μM, 24 hours. The protocol:
(§1) Experiments were performed using human fetal astrocytes derived from cerebral cortex (cat. no. 882A-05f; Cell Applications, Sant Diego, Calif.). Cells were grown to subconfluence in human astrocyte growth medium (cat. no. 820-500, Cell Applications). […] Test materials were added to subconfluent cultures at a concentration of 2.5 μM and cells were incubated for 24 hours.
(§2) RNA was extracted following the incubation period using the RNAeasy Mini Plus kit (Qiagen, Hilden, Germany) and robotic Qiacube Connect station (Qiagen). Samples were shipped on dry ice to the Thermo Fisher Microarray Research Services Laboratory (Santa Clara, Calif.) for transcriptome analysis. RNA quality analysis was performed upon sample receipt using the NanoDrop Lite (Thermo Fisher Scientific, Waltham, Mass.). All samples had 260/280 nm absorbance ratios higher than 1.90, consistent with high-purity RNA.
In follow-up to the study of Example, 1 above, genes associated with multiple sclerosis were identified based upon seven established database sources: (1) the NHGRI-EBI genome-wide association (GWA) study catalogue, (2) the Disease Ontology (DO) database, (3) the DisGeNET (curated) database, (4) the DisGeNET (BeFree), (5) MalaCards, (6) the Medical Subject Heading (MESH) database and the KEGG Database. The impact on gene expression of IDMF, MMF and DRF on the key overlapping MS-associated genes was assessed.
The specific data for four of the key NFR2 target genes associated with antioxidant and anti-inflammatory effects is presented in FIGS. 7(A) thru 7(D).
Both TNFAIP3 and NFKBIA encode inhibitory proteins that suppress the NF-KB pathway. Specifically, TNFAIP3 encodes a deubiquitinating enzyme previously linked to MS by genetic association studies: a TNFAIP3 protein abundance is increased in white matter and cortical lesion astrocytes from MS patient brains. Similarly, NFKBIA (IκBα) encodes an NF-KB inhibitor for which promoter polymorphisms have been associated with MS and abundance of this protein is prominent in macrophage nuclei of MS plaques undergoing active demyelination. ICAM1 encodes an endothelial adhesion molecule that promotes leucocyte extravasation and is associated with the initiation and progression of inflammation as well as the targeting of inflammation in the central nervous system (CNS). FIGS. 9(A), 9(B) and 9(C) show the specific data for these three genes.
Genetic variants of IFR has been associated with MS and some MS treatments such as glatiramer acetate block cytokine-stimulated IRF1 up-regulation. An assessment was undertaken to assess the relative impact of fumarate esters, namely MMF, DRF and IDMF on IFR motif enrichment.

The target of series [6] is T1, carboxylesterase 2 (CES2). As to the kind of experiment: Carboxylesterase hydrolysis IDMF v DRF. In kind it is in vitro ADME. The following applies: 20 μl of 1 mg/ml CES2, 37° C., pH 7.4. The procedure:
20 μl of 1 mg/ml carboxylesterase 2 (CES2) was added to each solution and the solutions incubated at 37° C. for the time periods set forth in Table 5. […] Although tolerable for normal patients, HES is undesirable and detrimental for those individuals have kidney and/or liver issues

Series [7] deals with human fetal astrocytes derived from cerebral cortex. Nature of the series: Comparative RT-PCR evaluation of selected genes in astrocytes. Format: cell-based. The protocol: as §1, §2
The expression of selected genes was further evaluated using RT-PCR. cDNA was prepared using the AzuraQuant cDNA kit (Azura Genomics, Raynham, Mass.) and PCR reactions were performed using the BioRad iCycler iQ Detection System with Fast Green qPCR Master Mix—Fluor (Azura Genomics). PCR primers were purchased from Realtimeprimers (Elkins Park, Pa.). The ΔΔCt method [Livak K. J. and Schmittgen T. D. Analysis of relative gene expression data using real-time quantitative PCR and the 2(−Delta Delta C(T)) Method. Methods (San Diego, Calif.) 25(4):402-408, 2001]. was used to estimate fold changes with cycle threshold values normalized based upon the expression of glyceraldehyde-3-phosphate dehydrogenase (GAPDH).

Setting [8] is: DEFINE and CONFIRM phase III trials.
[9] abbreviates: DRF 462 mg BID, 96-week study (EVOLVE-MS-1).

Each structure is given as a SMILES string. Where a name gives a salt, the structure may show the parent alone.

Turning to `COC(=O)/C=C/C(=O)OC` [DMF, Dimethyl fumarate], in the series on MS, the “Disability reduction, %” value is 38%; the “Gadolinium enhancement reduction, %” value is given as 74-90%; the “Relapse rate reduction vs. placebo, %” value is 44-53%; the Side effects entry was “Flushing,”. Moreover, the “T2w lesion reduction, %” value in the series with MS is on record as 71-85%. For the same compound, in the series with human fetal astrocytes, the ICAM1 expression result is listed as “no similar activity”, the “expression of genes linked to A1-polarization” value was “tended to increase expression” and the “expression of genes linked to A2-polarization” value is reported as “decreased expression”. Further, the “correlation of genome-wide expression responses with those observed in MS patients (Spearman r)” value in the series with cultured astrocytes was determined as 0.23. The remaining parent compound in [1] (0 minutes) is 1 mM. Also, the remaining parent compound in series [1] (30 minutes) is recorded as 0.166 mM. The remaining parent compound in series [1] (60 minutes) worked out at 0.08 mM. The remaining parent compound in series [1] (120 minutes) worked out at 0.014 mM. In addition, the “time by which essentially all is hydrolyzed” value in [1] (CES2, 37° C.) is at most 60 min. In addition, the “fraction not hydrolyzed to MMF” value in series [1] (within thirty minutes) is recorded as “about 17%”. Moreover, in series [2] (setting [8]), the “flushing, most reported adverse effect” value is 24-38% and the “specific gastrointestinal (GI) adverse effects (nausea, vomiting, diarrhea, upper abdominal pain), patients” value is 7 to 19%. Further, the “patients who experienced adverse GI effects” value in series [2] (after 1 year, in these trials) is listed as 36%. The “discontinuation of DMF due to GI side effects, patients” value in series [2] (real-world settings) is 5-19%.

Consider `COC(=O)/C=C/C(=O)OCCN1C(=O)CCC1=O` [DRF, diroximel fumarate], for which, in series [3] (5-week study, DRF 462 mg BID as compared to DMF 240 mg BID), the “reduction of number of days with at least moderate GI symptoms” value was 46%. Moreover, the “discontinuation due to adverse GI effects, patients” value in [3] (setting [9]) is on record as 6.3%. Moreover, the “patients who developed adverse GI effects” value in series [3] (setting [9]) is reported as 30.9%. Further, in series [4], the “RDC-8439 and methanol generated as minor products” value was under 10%. For the same compound, the “fraction metabolized to HES and MMF” value in [4] is reported as over 90%. For the same compound, in [5], the “effect on TNFAIP3, NFKBIA and ICAM1 expression” value is on record as “effectively no effect”. Moreover, the remaining parent compound is recorded as 1 mM in [6] (0 minutes); “.652 mM” in series [6] (15 minutes); 0.482 mM in series [6] (30 minutes); 0.273 mM in series [6] (60 minutes); 0.08 mM in series [6] (120 minutes). Further, the OSGIN1 expression result in series [7] (FIG. 11(B)) is given as “suppression”. For the same compound, in series [7] (FIGS. 11(C) through 11(H)), the “expression of key MS-associated genes (IL-6, ICAM1, MALT1, TNFAIP3, IRF1, CXCL8)” value is “negligible effect”.

Turning to `CCCCCCCCc1ccc(CCC(N)(CO)CO)cc1` [Fingolimod], the Side effects entry in the series on MS is “First dose”.

With `C/C(O)=C(\C#N)C(=O)Nc1ccc(C(F)(F)F)cc1` [Teriflunomide], the Side effects entry with MS is “Gl, hair thinning,”.
